Test results from patent US5885767A (BioCatalytics, Inc., priority 1998, dated 1999).
Where two headings read alike, the source gives them in different places.

Key:
[1] = target: T1, methionine gamma-lyase (Pseudomonas putida, UniProt P13254); conditions: cited from earlier work; for inhibition of methionine gamma-lyase (in words): at concentrations between 0.1 mM and 10 mM
T1 sequence (P13254 1-398): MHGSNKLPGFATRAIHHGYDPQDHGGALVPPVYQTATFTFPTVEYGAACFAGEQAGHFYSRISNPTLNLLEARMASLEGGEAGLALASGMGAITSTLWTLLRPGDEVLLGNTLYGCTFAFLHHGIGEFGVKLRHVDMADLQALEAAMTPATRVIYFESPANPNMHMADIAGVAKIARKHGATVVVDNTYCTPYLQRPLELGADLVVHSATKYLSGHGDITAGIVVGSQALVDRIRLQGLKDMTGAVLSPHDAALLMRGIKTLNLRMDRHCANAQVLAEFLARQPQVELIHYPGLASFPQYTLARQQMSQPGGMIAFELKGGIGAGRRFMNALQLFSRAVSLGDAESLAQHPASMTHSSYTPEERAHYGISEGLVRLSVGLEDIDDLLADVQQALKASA

[2] = target: T2, methionine gamma-lyase from Pseudomonas putida ICR 3460 (Pseudomonas putida, UniProt P13254); set-up: methionine gamma-lyase purified from Pseudomonas putida ICR 3460; host or cells: Pseudomonas putida ICR 3460 (enzyme purified from the organism itself); conditions: cited from earlier work; for Vmax as a substrate for methionine gamma-lyase: maximum velocity at saturating substrate concentrations; for Km / Vmax: purified enzyme from Pseudomonas putida ICR 3460
T2 sequence (P13254 1-398): T1 sequence (P13254 1-398)

[3] = target: T2, methionine gamma-lyase from Pseudomonas putida ICR 3460
Procedure: The 2-ketobutyrate produced in the reaction is quantitated by reaction with lactic dehydrogenase and NADH, and the rate of decrease in the absorbance at 340 nm is monitored.
Stock solutions for the coupled spectrophotometric assay are prepared as follows:
Potassiumphosphate buffer, 100 mM, pH 8.0 containing 0.01 mM pyridoxal 5'-phosphate
NADH in deionized water, 5 mg/ml
Lactate dehydrogenase, crystalline suspension from rabbit muscle in 3.2M ammonium sulfate containing 9.6 mg protein/ml, with a specific activity of 800-1200 units per milligram (Sigma)
The assay mixture is prepared as follows:
A background reading of the absorbance at 340 nm was made. Enzyme solution (10 microliters, appropriately diluted to produce a change of absorbance at 340 nm between 0.1 and 1 absorbance unit per minute) is then added, and the rate of decrease in the absorbance at 340 nm is measured using a spectrophotometer.
One unit of methionine gamma-lyase activity is that amount of enzyme that causes the oxidation of 1 micromole of NADH per minute at room temperature under the assay conditions described above.

SMILES | inhibition of methionine gamma-lyase (in words) [1] | activity as a substrate of methionine gamma-lyase (in words) [2] | inhibition of methionine gamma-lyase by thiol compounds (in words) [1] | other results
C[C@@H](O)[C@H](N)C(=O)O [L-Threonine] | Nor do these amino acids inhibit methionine gamma-lyase appreciably | either very poor substrates or do not react at all | – | –
N[C@@H](CS)C(=O)O [L-cysteine] | – | low activity | – | –
N[C@@H](CCS)C(=O)O [L-homocysteine] | – | excellent substrates | – | activity of the purified methionine gamma-lyase ([3]; L-homocysteine as substrate at a concentration of 2.5 mM): approximately 36 units per milligram; Vmax as a substrate for methionine gamma-lyase [2]: 36 micromoles per minute per milligram of pure protein; Km [2]: ≤ 1000 µM; Vmax [2]: 36 µmol/min/mg; Km ([2]; listed as L-Homocysteine): 430 µM
N[C@@H](CCO)C(=O)O [L-homoserine] | Nor do these amino acids inhibit methionine gamma-lyase appreciably | either very poor substrates or do not react at all | – | –
CSCC[C@H](N)C(=O)O [L-methionine] | – | excellent substrates | – | specific activity of purified methionine gamma-lyase ([3]; L-methionine as substrate, room temperature, pH 8.0, 1 unit = 1 micromole NADH oxidized per minute): approximately 20 units per milligram; Vmax as a substrate for methionine gamma-lyase [2]: about 20 micromoles per minute per milligram of pure protein; Km [2]: ≤ 1000 µM; Vmax [2]: 20.4 µmol/min/mg; Km ([2]; listed as L-Methionine): 1000 µM
N[C@@H](CO)C(=O)O [L-serine] | Nor do these amino acids inhibit methionine gamma-lyase appreciably | either very poor substrates or do not react at all | – | –
N[C@@H](Cc1c[nH]c2ccccc12)C(=O)O [L-tryptophan] | Nor do these amino acids inhibit methionine gamma-lyase appreciably | either very poor substrates or do not react at all | – | –
N[C@@H](Cc1ccc(O)cc1)C(=O)O [L-tyrosine] | Nor do these amino acids inhibit methionine gamma-lyase appreciably | either very poor substrates or do not react at all | – | –
O[C@H](CS)[C@@H](O)CS [dithioerythritol] | – | not acted on by the enzyme | nor do they inhibit the enzyme | –
O[C@H](CS)[C@H](O)CS [dithiothreitol] | – | not acted on by the enzyme | nor do they inhibit the enzyme | –
CC(=O)S [thioacetic acid] | – | not acted on by the enzyme | nor do they inhibit the enzyme | –
OCCS [β-mercaptoethanol] | – | not acted on by the enzyme | nor do they inhibit the enzyme | –
